Data published in US20250170183A1, “METHOD FOR ENRICHING MUSE CELLS AND OBTAINING EXOSOMES, MICROVESICLES OR THE SECRETOME THEREFROM” (priority 2022, published 2025).

Test system: Carrageenan-induced paw edema
Assay: Carrageenan-induced paw edema model
Type: in vivo, C57BL/6 mice
Details: single i.p. dose, 1.5 hours after administration; FIG. 5
Experimental: In order to assess the anti-inflammatory effect of the Muse cell derived EVs, various EV fractions were analyzed for anti-inflammatory efficacy using the paw edema model [16].
In our initial experiment, fifty-five female C57BL/6 mice (Charles River, Eastern Europe) were randomly assigned to one of five treatment groups: • (1) (−) Control (PBS) • (2) (+) Control (Dexamethasone: 20-30 mg/kg) • (3) EV100 (1, 10, or 100 billion EVs) • (4) EV500 (1, 10, or 100 billion EVs) • (5) Muse cell enriched culture (100K, 1 million, or 10 million cells)
Paw edema was induced in each animal by intra-plantar injection of 20 μl of a 1% (w/v) aqueous Carrageenan solution (SIGMA Aldrich) into the right hind paw.
Thirty minutes after the carrageenan injection, each animal received one dose of the control agent (treatment groups 1-2) or experimental agents (treatment groups 3-5) according to the respective assigned treatment group. The agent was administered by intra peritoneal (i.p.) injection. PBS was also used to resuspend EV100 and EV500 samples.
The intensity of the edema development and/or the amelioration thereof was assessed by measuring the paw width (the distance from one outer finger to the opposite outer finger) or paw thickness of the treated paw prior to treatment administration, and 2 h, 24 h, 48 h, and 72 h after administration of the control and experimental agents. […]

## C[C@@H]1C[C@H]2[C@@H]3CCC4=CC(=O)C=C[C@]4(C)[C@@]3(F)[C@@H](O)C[C@]2(C)[C@@]1(O)C(=O)CO [dexamethasone]
  paw thickness, immediate response: no effect
